Series [1] addresses T1, hOAT3 (Homo sapiens, UniProt Q8TCC7).
T1 construct: cRNA (RNA complementary to cDNA) was prepared in vitro from the plasmid comprising the hOAT3 recovered above; expressed in transfected cells; host or cells: Xenopus oocytes injected with hOAT3 cRNA
T1 sequence (Q8TCC7 1-542 K271E/D366H): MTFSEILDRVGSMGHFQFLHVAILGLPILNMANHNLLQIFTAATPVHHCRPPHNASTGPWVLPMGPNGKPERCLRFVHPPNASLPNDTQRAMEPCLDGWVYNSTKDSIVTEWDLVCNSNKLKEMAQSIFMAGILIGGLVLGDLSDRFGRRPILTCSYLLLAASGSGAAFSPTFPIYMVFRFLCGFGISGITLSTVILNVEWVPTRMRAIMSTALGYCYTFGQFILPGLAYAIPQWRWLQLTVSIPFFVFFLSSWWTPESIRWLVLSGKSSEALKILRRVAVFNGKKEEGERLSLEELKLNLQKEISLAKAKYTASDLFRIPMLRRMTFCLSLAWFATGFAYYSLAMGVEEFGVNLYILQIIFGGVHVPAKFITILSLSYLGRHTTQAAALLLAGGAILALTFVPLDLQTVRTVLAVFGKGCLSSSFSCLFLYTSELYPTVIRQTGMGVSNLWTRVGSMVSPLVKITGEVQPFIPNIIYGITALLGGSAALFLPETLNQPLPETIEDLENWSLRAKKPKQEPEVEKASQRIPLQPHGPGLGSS
The series is described as follows: Uptake of radiolabeled compounds by Xenopus oocyte injected with hOAT3 cRNA. Format: cell-based. Particulars: substrate 50 nM; one hour; versus control oocyte. On the procedure:
By using T7 RNA polymerase, cRNA (RNA complementary to cDNA) was prepared in vitro from the plasmid comprising the hOAT3 recovered above by the method by Sekine, et al. (see Sekine, T., et al. J. Biol. Chem., Vol. 272, pp. 18526-9, 1997).
According to the already reported method of Sekine, et al. (Sekine, T., et al. J. Biol. Chem., Vol. 272, pp. 18526-9, 1997), the resulting hOAT3 cRNA was injected in the Xenopus oocyte; the oocyte was subjected to an uptake test with various radiolabeled organic anions and organic cations. The control oocyte cell (oocyte cell with no injection of hOAT3 cRNA) and the oocyte cell injected with hOAT3 cRNA were cultured in a buffer containing the following radiolabels for one hour, to assay the uptake of the radiolabels into the oocytes.
In each figure, open column expresses the case of the control oocyte used; and closed column expresses the case of the oocyte injected with hOAT3 cRNA.

Series [2] has as its target T2, hOAT3 (Homo sapiens, UniProt Q8TCC7, D366H/K271E).
T2 sequence (Q8TCC7 1-542 K271E/D366H): T1 sequence (Q8TCC7 1-542 K271E/D366H)
The series is described as follows: Inhibition of 3H-estrone sulfate uptake in oocyte injected with hOAT3 cRNA. It counts as cell-based. The arrangement: cRNA (RNA complementary to cDNA) was prepared in vitro from the plasmid comprising the hOAT3 recovered above; expressed in transfected cells; host or cells: Xenopus oocytes injected with hOAT3 cRNA. The settings on record: 50 nM 3H-estrone sulfate; non-radiolabeled compound at 500 μM or the concentration shown in FIG. 19; one hour.

The next series addresses T3, rat OAT3 (rk1411) (Rattus norvegicus, UniProt Q9R1U7).
T3 construct: cRNA (RNA complementary to cDNA) was prepared in vitro from the plasmid carrying the clone (rk1411); expressed in transfected cells; host or cells: Xenopus oocytes injected with rk1411 cRNA
T3 sequence (Q9R1U7 1-536): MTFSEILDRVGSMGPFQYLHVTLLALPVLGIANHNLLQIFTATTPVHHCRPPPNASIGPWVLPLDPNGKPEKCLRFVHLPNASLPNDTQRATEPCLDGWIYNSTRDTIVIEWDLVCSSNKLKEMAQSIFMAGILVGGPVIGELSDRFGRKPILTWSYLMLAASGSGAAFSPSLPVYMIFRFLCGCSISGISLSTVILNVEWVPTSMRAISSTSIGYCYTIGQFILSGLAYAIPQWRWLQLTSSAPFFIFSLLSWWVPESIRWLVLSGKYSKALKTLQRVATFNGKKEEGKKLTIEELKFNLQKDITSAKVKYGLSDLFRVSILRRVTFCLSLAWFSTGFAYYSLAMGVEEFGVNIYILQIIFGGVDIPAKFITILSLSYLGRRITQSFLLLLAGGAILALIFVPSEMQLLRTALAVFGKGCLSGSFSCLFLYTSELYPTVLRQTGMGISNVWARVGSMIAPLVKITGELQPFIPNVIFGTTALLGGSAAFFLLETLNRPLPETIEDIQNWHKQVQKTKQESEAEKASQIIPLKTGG
The series is described as follows: Michaelis-Menten dynamic test of organic anion transport with rk1411 in oocyte. Format: cell-based. Particulars: transport by rk1411 (rat OAT3) in Xenopus oocyte, FIG. 2, read-out: Km. An excerpt: The organic anion transport with rk1411 was subjected to the Michaelis-Menten dynamic test.

The target of series [3] is T2, hOAT3. The settings on record: transport by hOAT3 in Xenopus oocyte. An excerpt:
Then, the hOAT3 transport of organic anions was examined at the Michaelis-Menten kinetic test.

Read-outs that look alike come from different tables or passages of the source.

One may read the Km as the substrate concentration at which the rate is half of its maximum. As to estrone sulfate, the “uptake of radiolabeled compound by oocyte with hOAT3 expression” value at hOAT3 [1] is on record as “takes up”. The “inhibition of the transport of 3H-estrone sulfate with hOAT3” value against hOAT3 [2] is given as “significantly inhibited”. Further, the Km at rat OAT3 (rk1411) (listed as Estrone sulfate) stood at 2340 ± 200 nM; on rat OAT3 (rk1411), 2300 nM; on hOAT3 [3], 3.08 µM.

(Values after patent publication US8039586B1, “Cerebral organic anion transporter and its gene” (J-Pharma Co., Ltd., priority 1998, dated 2011).)
